Reference: paper PMC5879690 (Proceedings of the National Academy of Sciences of the …, 2018)

Molecular target: indoleamine 2,3-dioxygenase (IDO1) (Homo sapiens, UniProt P14902)
Test: enzyme activity assay, N-formylkynurenine production
Type: biochemical

indoleamine 2,3-dioxygenase (IDO1), sequence (P14902 whole entry): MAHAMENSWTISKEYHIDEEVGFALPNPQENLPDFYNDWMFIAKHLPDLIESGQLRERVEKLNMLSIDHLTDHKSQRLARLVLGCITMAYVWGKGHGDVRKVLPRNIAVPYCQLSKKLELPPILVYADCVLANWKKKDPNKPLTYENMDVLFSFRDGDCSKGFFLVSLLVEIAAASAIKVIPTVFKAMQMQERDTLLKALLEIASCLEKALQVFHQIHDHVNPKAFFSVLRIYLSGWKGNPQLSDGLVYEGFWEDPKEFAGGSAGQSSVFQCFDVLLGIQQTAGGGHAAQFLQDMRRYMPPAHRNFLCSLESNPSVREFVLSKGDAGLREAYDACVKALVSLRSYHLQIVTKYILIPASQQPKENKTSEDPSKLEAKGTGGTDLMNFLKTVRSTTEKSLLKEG

For N[C@H](Cc1c[nH]c2ccccc12)C(=O)O [D-tryptophan], the “enzyme activity assay, N-formylkynurenine production” value was “D-tryptophan was used as the substrate, which unlike L-tryptophan, does not cause substrate inhibition”.
